Key:
[1] = tested on: production of NO in a mouse macrophage cell line RAW264.7; settings: RAW264.7 stimulated by LPS; previously shown (ref 22); cited from earlier work
IFR3 phosphorylation = assay: LPS-induced type I interferon (IFN) responses; type: cell-based
IKKβ C46A = target: T1, IKKβ C46A (Homo sapiens, UniProt O14920, C46A); assay: Binding to IKKβ cysteine mutants
T1 construct: Flag; made in house

[2] = tested on: gastric adenocarcinoma BCG-823 cells; assay: Cancer cell survival; type: cell-based, human
[3] = tested on: IKKβ C215 containing peptides #3 and #4; assay: Peptide binding by MALDI-TOF; design: species or system human
IKKβ Cys46 into serine = target: T2, IKKβ Cys46 into serine (Homo sapiens, UniProt O14920, C46S); assay: Binding to Cys46-to-serine mutant
T2 construct: Flag; made in house

[4] = tested on: LPS-triggered inflammatory response (serum TNF-α, IL-6, IL-1β); assay: LPS induced inflammatory cytokines in vivo; settings: mice pre-injected with compound, then LPS
Source text: (+)-Ainsliadimer A (223) is a structurally unique and complex sesquiterpene lactone dimer with an unprecedented carbon skeleton, which was originally isolated from Ainsliaea macrocephala used in traditional Chinese medicine for the treatment of various diseases, including angina and rheumatoid arthritis^22. Aiming for the systematical chemical genetic studies using bioactive natural products, we have successfully accomplished the first enantioselective total syntheses of 223 as well as other related dimeric and trimeric sesquiterpenoids^23-25, which provided us ample material to extensively investigate their biological activities and potential therapy application. […] As an endotoxin, LPS is known to cause a systemic inflammatory response and acute tissue injury when injected into mice. Thus, we attempt to examine the effect of 223 on LPS-triggered inflammatory response in vivo. Mice were pre-injected with or without vehicle or 223, and then followed by administration of PBS or LPS.

[5] = tested on: IKKβ, other eight cysteine-to-alanine mutants; assay: Binding to IKKβ cysteine mutants
Source text: In order to evaluate which of them is critical for the binding of 223, we individually mutated these nine cysteine residues of IKKβ into alanines.

recombinant Flag-IKKβ = target: T3, recombinant Flag-IKKβ (Homo sapiens, UniProt O14920); assay: Binding to purified recombinant protein (SDS-PAGE, streptavidin blot); settings: excess unlabeled compound
T3 construct: made in house; host or cells: 293T cells (transient transfection, anti-Flag purification)
Experimental: To determine whether 223 directly binds to IKKα and IKKβ, we generated recombinant IKKα and IKKβ proteins for further analysis. 293T cells were transfected with Flag-IKKα or Flag-IKKβ plasmid, and the recombinant Flag-IKKα or Flag-IKKβ was captured by anti-Flag agarose beads and was then eluted off the beads using Flag peptide. The purified Flag-IKKα or Flag-IKKβ was incubated with DMSO or increasing concentrations of Probe, and then the mixtures were resolved by SDS-PAGE, followed by immunoblotting with streptavidin or anti-Flag antibody.

[6] = tested on: peptides 1A, 2A, 1S and 2S (cysteine 46 replaced by alanine or serine); assay: Peptide binding by MALDI-TOF; design: species or system human
[7] = tested on: BGC-823 human gastric adenocarcinoma xenograft; assay: BGC-823 xenograft in nude mice; type: in vivo; settings: 223 25 mg/kg, qdx8
Experimental: Next we further examined anti-tumor effect of 223 in vivo. Nude mice bearing a BGC-823 human gastric adenocarcinoma xenograft were treated with vehicle or 223 (25 mg/kg, qdx8) or 10-hydroxycamptothecin (HCPT), a widely used anti-tumor drug (30 mg/kg, q6dx2).

[8] = tested on: NIK-mediated production of p52 (IKKα activity); assay: NIK-mediated non-canonical NF-κB activation (processing of p100 to p52); type: cell-based; settings: ectopic expression of NIK
Source text: Since phosphorylation of p100 by IKKα is critical for NIK-mediated activation of the non-canonical NF-κB, we further investigated the effect of 223 on non-canonical NF-κB activation.

IKKγ/NEMO = IKKγ/NEMO (Homo sapiens, UniProt Q9Y6K9); assay: Association with other NF-κB pathway proteins; type: binding
IKKα Cys46 into serine = target: T4, IKKα Cys46 into serine (Homo sapiens, UniProt O15111, C46S); assay: Binding to Cys46-to-serine mutant
T4 construct: Flag; made in house

TAK1 = TAK1 (Homo sapiens, UniProt O43318); assay: Association with other NF-κB pathway proteins; type: binding
C46A-IKKβ = C46A-IKKβ (Homo sapiens, UniProt O14920, C46A); assay: In vitro kinase assay with Flag-IκBα substrate
WT-IKKβ = WT-IKKβ (Homo sapiens, UniProt O14920); assay: In vitro kinase assay with Flag-IκBα substrate
Chain of WT-IKKβ (O14920 whole entry): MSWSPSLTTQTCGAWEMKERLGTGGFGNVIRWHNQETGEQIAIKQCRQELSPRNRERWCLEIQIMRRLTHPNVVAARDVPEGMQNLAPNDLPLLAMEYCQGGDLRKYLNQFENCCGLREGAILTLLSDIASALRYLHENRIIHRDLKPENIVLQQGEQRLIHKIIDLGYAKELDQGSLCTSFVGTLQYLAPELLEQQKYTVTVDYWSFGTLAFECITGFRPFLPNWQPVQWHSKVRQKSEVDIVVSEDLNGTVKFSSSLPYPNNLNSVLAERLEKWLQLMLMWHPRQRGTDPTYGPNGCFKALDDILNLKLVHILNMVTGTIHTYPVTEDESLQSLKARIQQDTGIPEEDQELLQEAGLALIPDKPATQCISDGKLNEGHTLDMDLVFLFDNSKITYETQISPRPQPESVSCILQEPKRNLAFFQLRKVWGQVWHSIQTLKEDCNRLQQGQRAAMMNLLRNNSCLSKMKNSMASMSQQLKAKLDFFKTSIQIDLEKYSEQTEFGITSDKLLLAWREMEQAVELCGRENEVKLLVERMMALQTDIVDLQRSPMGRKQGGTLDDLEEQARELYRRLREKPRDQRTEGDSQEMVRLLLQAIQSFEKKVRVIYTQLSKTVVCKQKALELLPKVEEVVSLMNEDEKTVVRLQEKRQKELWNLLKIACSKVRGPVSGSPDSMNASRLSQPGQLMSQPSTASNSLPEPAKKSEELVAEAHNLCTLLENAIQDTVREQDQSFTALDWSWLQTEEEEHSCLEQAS

T4 sequence (O15111 whole entry C46S): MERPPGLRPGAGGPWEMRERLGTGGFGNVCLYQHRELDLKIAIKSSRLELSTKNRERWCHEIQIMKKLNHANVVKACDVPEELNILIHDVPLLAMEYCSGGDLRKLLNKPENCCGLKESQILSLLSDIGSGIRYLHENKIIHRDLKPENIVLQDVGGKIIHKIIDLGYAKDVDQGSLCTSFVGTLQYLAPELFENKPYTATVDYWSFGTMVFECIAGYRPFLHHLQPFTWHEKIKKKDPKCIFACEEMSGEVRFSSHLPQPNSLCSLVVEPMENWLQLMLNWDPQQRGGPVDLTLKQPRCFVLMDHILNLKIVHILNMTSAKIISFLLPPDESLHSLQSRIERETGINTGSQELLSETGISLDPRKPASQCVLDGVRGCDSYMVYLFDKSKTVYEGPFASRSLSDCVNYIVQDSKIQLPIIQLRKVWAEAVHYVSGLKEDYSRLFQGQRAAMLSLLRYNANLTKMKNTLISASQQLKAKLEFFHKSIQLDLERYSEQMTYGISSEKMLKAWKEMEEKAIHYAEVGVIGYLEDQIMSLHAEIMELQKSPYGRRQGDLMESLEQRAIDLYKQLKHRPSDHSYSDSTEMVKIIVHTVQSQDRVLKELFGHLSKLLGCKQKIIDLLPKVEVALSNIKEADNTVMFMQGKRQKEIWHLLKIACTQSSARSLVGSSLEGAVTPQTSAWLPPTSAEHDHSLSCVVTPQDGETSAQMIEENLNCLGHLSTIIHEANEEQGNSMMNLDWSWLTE
Chain of TAK1 (O43318 whole entry): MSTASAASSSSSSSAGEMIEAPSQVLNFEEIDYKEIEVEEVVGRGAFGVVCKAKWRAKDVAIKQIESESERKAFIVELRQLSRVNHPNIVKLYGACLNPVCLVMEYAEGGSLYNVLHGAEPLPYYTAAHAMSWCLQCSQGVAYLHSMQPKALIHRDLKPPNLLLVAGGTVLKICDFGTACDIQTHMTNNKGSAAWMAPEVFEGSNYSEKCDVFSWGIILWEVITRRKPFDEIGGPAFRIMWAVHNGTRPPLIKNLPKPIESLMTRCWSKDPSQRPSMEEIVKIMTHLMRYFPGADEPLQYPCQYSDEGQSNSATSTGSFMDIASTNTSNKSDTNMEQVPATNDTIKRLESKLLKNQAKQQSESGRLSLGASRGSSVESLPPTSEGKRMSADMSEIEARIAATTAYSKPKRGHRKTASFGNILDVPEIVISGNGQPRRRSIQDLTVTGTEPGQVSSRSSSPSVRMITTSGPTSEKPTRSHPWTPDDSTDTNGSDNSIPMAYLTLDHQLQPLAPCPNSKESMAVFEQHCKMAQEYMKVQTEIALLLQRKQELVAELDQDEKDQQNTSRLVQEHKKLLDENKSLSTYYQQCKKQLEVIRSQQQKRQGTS
Chain of IKKγ/NEMO (Q9Y6K9 whole entry): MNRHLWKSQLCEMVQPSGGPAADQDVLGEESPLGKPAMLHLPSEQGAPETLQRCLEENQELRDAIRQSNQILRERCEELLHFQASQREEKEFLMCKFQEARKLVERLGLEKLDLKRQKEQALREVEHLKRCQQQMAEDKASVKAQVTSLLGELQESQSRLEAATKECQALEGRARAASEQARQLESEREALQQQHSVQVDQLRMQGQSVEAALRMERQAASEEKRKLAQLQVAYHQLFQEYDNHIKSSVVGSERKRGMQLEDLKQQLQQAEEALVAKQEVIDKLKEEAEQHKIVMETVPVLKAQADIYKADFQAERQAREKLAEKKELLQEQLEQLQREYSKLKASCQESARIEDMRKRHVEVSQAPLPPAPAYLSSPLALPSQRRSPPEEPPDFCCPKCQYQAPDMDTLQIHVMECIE
T3 sequence (O14920 whole entry): as the sequence (O14920 whole entry) above
T1 sequence (O14920 whole entry C46A): as the sequence (O14920 whole entry) above, with C46A counted along it
Chain of C46A-IKKβ (O14920 whole entry C46A): as the sequence (O14920 whole entry) above, with C46A counted along it
T2 sequence (O14920 whole entry C46S): as the sequence (O14920 whole entry) above, with C46S counted along it

## C=C1C(=O)O[C@@H]2[C@@H]3[C@@H](C[C@@]4(O)[C@]3(O)CC[C@]43C(=O)C[C@H]4C(=C)CC[C@H]5C(=C)C(=O)O[C@@H]5[C@H]43)C(=C)CC[C@@H]12 [Compound 223, (+)-Ainsliadimer A]
[1]
  inhibitory activity against the production of NO: inhibitory activity
IFR3 phosphorylation
  effect on LPS-induced type I interferon (IFN) responses (IFR3 phosphorylation): no effect
IKKβ C46A
  interaction of IKKβ C46A mutant with compound: completely lost the ability to interaction
[2]; BCG-823, 48 hours
  inhibition of cell survival (cell viability by ATP levels): dose response inhibition
[2]; BCG-823, different concentration
  cell death: Dramatic cell death
[3]
  association with peptides #3 and #4: no association
IKKβ Cys46 into serine
  interaction with IKKβ Cys46 to serine mutant: abolished
[4]
  up-regulation of serum IL-1β: greatly attenuated
  up-regulation of serum IL-6: greatly attenuated
  up-regulation of serum TNF-α: greatly attenuated
[5]
  binding of other eight IKKβ cysteine mutants: retained high affinity binding
Recombinant Flag-IKKβ
  competition of Probe binding to recombinant IKKβ: competed off
[6]
  binding to peptides 1A, 2A, 1S and 2S: lost the ability to bind
[7]
  anti-tumor effect relative to HCPT (30 mg/kg, q6dx2): comparable
[7]; HCPT 30 mg/kg, q6dx2
  side effects and body weight during administration: did not display any discernible side effects or significant changes in body weight
[7]; after 12 days
  mice with significant tumor remission: eight of eight
[7]; after 12 days, compared to vehicle
  xenograft tumor response: Significant xenograft tumor remission
[8]
  NIK-mediated production of p52: prevented
IKKγ/NEMO
  association with IKKγ/NEMO: no association
IKKα Cys46 into serine
  interaction with IKKα Cys46 to serine mutant: abolished
TAK1
  association with TAK1: no association
C46A-IKKβ
  phosphorylation of IκBα triggered by C46A-IKKβ: resistant
WT-IKKβ
  WT-IKKβ-induced phosphorylation of IκBα: significantly suppressed
